Patent US20170022201A1, “MACROCYLIC PYRIDINE DERIVATIVES” (Janssen Pharmaceutica NV, priority 2014, published 2017)

Molecular target: T1, eEF2K (Homo sapiens, UniProt O00418)
T1 construct: in the immortalized epithelial breast cell lines, MCF10A; host or cells: MCF10A immortalized breast epithelial cells
T1 sequence (O00418 1-725): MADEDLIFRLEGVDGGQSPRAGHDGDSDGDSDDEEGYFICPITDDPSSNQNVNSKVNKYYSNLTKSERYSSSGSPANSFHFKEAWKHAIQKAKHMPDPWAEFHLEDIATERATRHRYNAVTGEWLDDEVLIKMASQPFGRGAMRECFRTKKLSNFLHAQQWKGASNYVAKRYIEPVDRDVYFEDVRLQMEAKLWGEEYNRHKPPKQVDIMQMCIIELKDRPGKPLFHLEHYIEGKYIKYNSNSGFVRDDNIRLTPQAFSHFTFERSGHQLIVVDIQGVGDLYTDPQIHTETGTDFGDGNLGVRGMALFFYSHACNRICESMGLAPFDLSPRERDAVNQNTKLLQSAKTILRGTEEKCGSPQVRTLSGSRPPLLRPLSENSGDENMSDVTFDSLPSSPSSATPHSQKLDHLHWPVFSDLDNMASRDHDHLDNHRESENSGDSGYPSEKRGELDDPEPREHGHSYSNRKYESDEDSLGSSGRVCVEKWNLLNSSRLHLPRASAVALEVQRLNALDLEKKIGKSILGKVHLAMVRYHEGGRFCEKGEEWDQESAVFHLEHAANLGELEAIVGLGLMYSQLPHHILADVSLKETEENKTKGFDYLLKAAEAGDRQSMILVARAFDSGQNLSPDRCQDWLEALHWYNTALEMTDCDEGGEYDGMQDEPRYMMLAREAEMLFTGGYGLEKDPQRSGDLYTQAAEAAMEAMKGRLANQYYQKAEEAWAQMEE
Test: EF2K cell-based assay (P-EF2 AlphaLISA, 2-deoxyglucose stimulated MCF10A cells)
Settings: 2.5 mM 2-deoxyglucose 4 h, phosphorylation of EF2 at Thr 56, pIC50 = -log IC50 (M), read-out: eEF2K_C_PThr56 pIC50 (converted)
Procedure: In this assay, 2.5 mM 2-deoxyglucose was used to deplete intracellular ATP and activate 5′ adenosine monophosphate-activated protein kinase (AMPK) in the immortalized epithelial breast cell lines, MCF10A. MCF 10A cells were purchased from ATCC (CRL-10317).
MCF10A cells are seeded at a density of 1.25×10^5 Cells/ml at 100 μl/well in a 96-well plate and incubated for 24 hours (37° C., 5% CO2). Compound is added for 1 hour, and cell are stimulated with 2.5 mM of 2-deoxy-glucose for 4 hours. Medium is then removed, and cells are lysed in an ice-cold buffer M-PER (Thermo Scientific, 78501), containing protease and phosphatase inhibitors. P-EF2 levels are determined in these lysates using the P-EF2 AlphaLISA described above.

Compound	IC50 [M]
CC1c2cccc(c2F)Nc2cc(ccn2)-c2cnc(nc2)NCCCNC(=O)C2(CC2)N2CCN1CC2 (single isomer, unassigned) [Compound 11]	2.88e-07
CC1c2cccc(c2F)Nc2cc(ccn2)-c2cnc(nc2)NCCCNC(=O)C2(CC2)N2CCN1CC2 (single isomer, unassigned) [Compound 12]	> 1e-05
CC1c2cccc(c2)Nc2cc(ccn2)-c2cnc(nc2)NCCCNC(=O)C2(CC2)N2CCN1CC2 (single isomer, unassigned) [Compound 22]	3.63e-07
O=C1NCCCNc2ncc(cn2)-c2ccnc(c2)Nc2cccc(c2F)CN2CCN(CC2)C12CC2 [Compound 20]	1.66e-07
O=C1CN2CCN(CC2)Cc2cccc(c2)Nc2cc(ccn2)-c2cnc(nc2)N2CCC2CCN1 (stereo not drawn) [Compound 49]	> 1e-05
O=C1CN2CCN(CC2)Cc2cc(ccc2F)Nc2cc(ccn2)-c2cnc(nc2)N2CC(O)CC2CCN1 (stereo not drawn) [Compound 50]	3.55e-07
O=C1CN2CCN(CC2)Cc2cc(ccn2)Nc2cc(ccn2)-c2cnc(nc2)N2CC(O)CC2CCN1 (stereo not drawn) [Compound 51]	~1e-05
CC1c2cccc(c2F)Nc2cc(ccn2)-c2cnc(nc2)N2CC(O)CC2CCNC(=O)C2(CC2)N2CCN1CC2 (stereo not drawn) [Compound 52]	7.59e-08
O=C1NCCC2CC(O)CN2c2ncc(cn2)-c2ccnc(c2)Nc2cccc(c2)CN2CCN(CC2)C12COC2 (stereo not drawn) [Compound 63]	1.74e-06
O=C1NCCC2CC(O)CN2c2ncc(cn2)-c2ccnc(c2)Nc2cccc(c2)CN2CCN(CC2)C12COC2 (stereo not drawn) [Compound 64]	3.89e-07
CN1CCCNc2ccc(cn2)-c2ccnc(c2)Nc2cccc(c2)CN2CCN(CC2)CC1=O [Compound 69]	> 3.02e-05

Other lines, results leading:

IC50 [M]	Compound
> 1e-05	O=C1CN2CCN(CC2)Cc2cccc(c2)Nc2cc(ccn2)-c2cnc(nc2)C2CCCN2CCN1 (single isomer, unassigned) [Compound 139]
1.15e-06	N#CC1CC2CCNC(=O)C3(CC3)N3CCN(CC3)Cc3cccc(c3)Nc3cc(ccn3)-c3cnc(nc3)N2C1 (stereo not drawn) [Compound 79]
6.31e-07	O=C1CN2CCN(CC2)Cc2cccc(c2)Nc2cc(ccn2)-c2cnc(nc2)N2CC(F)CC2CCN1 (stereo not drawn) [Compound 80]
3.09e-07	O=C1CN2CCN(CC2)Cc2cccc(c2)Nc2cc(ccn2)-c2cnc(nc2)N2CC=CC2CCN1 (stereo not drawn) [Compound 81]
7.08e-07	[N-]=[N+]=N[C@@H]1C[C@H]2CCNC(=O)CN3CCN(CC3)Cc3cccc(c3)Nc3cc(ccn3)-c3cnc(nc3)N2C1 [Compound 82]
1.1e-06	NC1CC2CCNC(=O)C3(CC3)N3CCN(CC3)Cc3cccc(c3)Nc3cc(ccn3)-c3cnc(nc3)N2C1 (stereo not drawn) [Compound 85]
3.24e-07	O=C1NCCCNc2ncc(cn2)-c2ccnc(c2)Nc2cccc(c2F)OC2CCN(CC2)C12CC2 [Compound 89]
7.24e-07	O=C1CN2CCC(CC2)Oc2cccc(c2F)Nc2cc(ccn2)-c2cnc(nc2)NCCCN1 [Compound 91]
1.17e-06	O=C1CN2CC(C2)Oc2cccc(c2)Nc2cc(ccn2)-c2cnc(nc2)NCCCN1 [Compound 92]

Molecular target: T2, EF2K (Homo sapiens, UniProt O00418)
T2 construct: host or cells: LN-229 glioblastoma cell lysate
T2 sequence (O00418 1-725): T1 sequence (O00418 1-725)
Test: Biochemical EF2K lysate-based kinase assay (AlphaLISA p-eEF2 Thr56)
Settings: LN-229 cell lysates, 10 mM ATP, pH 6.6; pIC50 = -log IC50 (M); read-out: eEF2K_C_alphalisa pIC50 (converted)
Excerpt: LN-229 cells were purchased from ATCC (CRL-2611); these are glioblastoma cells. Cell lysates from LN229 were used in this kinase assay to provide both the kinase and the substrate (EF2). The AlphaLISA p-eEF2 (Thr56) detection assay was developed using a sandwich assay format with two specific antibodies recognizing different epitopes of the target, including one antibody against the phosphorylation site of interest. One anti-eEF2 antibody was conjugated onto AlphaLISA Acceptor beads, while the second antibody was biotinylated and captured by streptavidin coated Donor beads.
Compound was mixed with LN-229 cell lysates in the presence of a kinase buffer (e.g. HEPES) at a pH of 6.6, containing 10 mM Mg^2+ (e.g. magnesium acetate) and 10 mM adenosine-tri-phosphate (ATP) and incubated at room temperature for 15 minutes. The kinase reaction was stopped with excess ethylenediaminetetraacetic acid disodium salt and the biotinylated-anti phospho eEF2 antibody (3 nM) was added for 1 hour. Then the anti-EF2 acceptor beads (10 μg/ml) as well as the streptavidin coated donor beads (20 μg/ml) were added for 1 hour, and the AlphaLISA signal was measured in an Envision instrument once, left overnight, and measured again for the final read.

Compound	IC50 [M]
CC1c2cccc(c2F)Nc2cc(ccn2)-c2cnc(nc2)NCCCNC(=O)C2(CC2)N2CCN1CC2 (single isomer, unassigned) [Compound 11]	2.75e-09
CC1c2cccc(c2F)Nc2cc(ccn2)-c2cnc(nc2)NCCCNC(=O)C2(CC2)N2CCN1CC2 (single isomer, unassigned) [Compound 12]	1.45e-07
CC1c2cccc(c2)Nc2cc(ccn2)-c2cnc(nc2)NCCCNC(=O)C2(CC2)N2CCN1CC2 (single isomer, unassigned) [Compound 22]	~1.05e-08
O=C1NCCCNc2ncc(cn2)-c2ccnc(c2)Nc2cccc(c2F)CN2CCN(CC2)C12CC2 [Compound 20]	3.98e-09
O=C1CN2CCN(CC2)Cc2cccc(c2)Nc2cc(ccn2)-c2cnc(nc2)N2CCC2CCN1 (stereo not drawn) [Compound 49]	2.51e-05
O=C1CN2CCN(CC2)Cc2cc(ccc2F)Nc2cc(ccn2)-c2cnc(nc2)N2CC(O)CC2CCN1 (stereo not drawn) [Compound 50]	1.02e-08
CC1c2cccc(c2F)Nc2cc(ccn2)-c2cnc(nc2)N2CC(O)CC2CCNC(=O)C2(CC2)N2CCN1CC2 (stereo not drawn) [Compound 52]	5.37e-09
O=C1NCCC2CC(O)CN2c2ncc(cn2)-c2ccnc(c2)Nc2cccc(c2)CN2CCN(CC2)C12COC2 (stereo not drawn) [Compound 63]	1.95e-08
O=C1NCCC2CC(O)CN2c2ncc(cn2)-c2ccnc(c2)Nc2cccc(c2)CN2CCN(CC2)C12COC2 (stereo not drawn) [Compound 64]	5.13e-09
CN1CCCNc2ccc(cn2)-c2ccnc(c2)Nc2cccc(c2)CN2CCN(CC2)CC1=O [Compound 69]	1.41e-05

Results, then the compound that gave them:

IC50 [M]	Compound
7.59e-06	O=C1CN2CCN(CC2)Cc2cccc(c2)Nc2cc(ccn2)-c2cnc(nc2)C2CCCN2CCN1 (single isomer, unassigned) [Compound 139]
9.77e-08	N#CC1CC2CCNC(=O)C3(CC3)N3CCN(CC3)Cc3cccc(c3)Nc3cc(ccn3)-c3cnc(nc3)N2C1 (stereo not drawn) [Compound 79]
1e-08	O=C1CN2CCN(CC2)Cc2cccc(c2)Nc2cc(ccn2)-c2cnc(nc2)N2CC(F)CC2CCN1 (stereo not drawn) [Compound 80]
4.9e-09	O=C1CN2CCN(CC2)Cc2cccc(c2)Nc2cc(ccn2)-c2cnc(nc2)N2CC=CC2CCN1 (stereo not drawn) [Compound 81]
1.86e-08	[N-]=[N+]=N[C@@H]1C[C@H]2CCNC(=O)CN3CCN(CC3)Cc3cccc(c3)Nc3cc(ccn3)-c3cnc(nc3)N2C1 [Compound 82]
2.75e-08	NC1CC2CCNC(=O)C3(CC3)N3CCN(CC3)Cc3cccc(c3)Nc3cc(ccn3)-c3cnc(nc3)N2C1 (stereo not drawn) [Compound 85]
~4.47e-09	O=C1NCCCNc2ncc(cn2)-c2ccnc(c2)Nc2cccc(c2F)OC2CCN(CC2)C12CC2 [Compound 89]
1.35e-08	O=C1CN2CCC(CC2)Oc2cccc(c2F)Nc2cc(ccn2)-c2cnc(nc2)NCCCN1 [Compound 91]
1.26e-07	O=C1CN2CC(C2)Oc2cccc(c2)Nc2cc(ccn2)-c2cnc(nc2)NCCCN1 [Compound 92]
